Test results: patent US7662832B2, “Pyrrolo[2,3-c]pyridine derivatives and processes for the preparation thereof” (priority 2004, dated 2010)
Structures can show the parent of a compound that is named as a salt.

Each compound was assayed against Proton Pump (H^+/K^+-ATPase) (Sus scrofa, UniProt P19156) (assay: Inhibitory effects on proton pump (H^+/K^+-ATPase) activity). Conditions: hog gastric vesicles; K^+ stimulated H^+/K^+-ATPase activity; 30 minutes at 37° C.
Chain of Proton Pump (H^+/K^+-ATPase) (P19156 2-1034 limits assumed): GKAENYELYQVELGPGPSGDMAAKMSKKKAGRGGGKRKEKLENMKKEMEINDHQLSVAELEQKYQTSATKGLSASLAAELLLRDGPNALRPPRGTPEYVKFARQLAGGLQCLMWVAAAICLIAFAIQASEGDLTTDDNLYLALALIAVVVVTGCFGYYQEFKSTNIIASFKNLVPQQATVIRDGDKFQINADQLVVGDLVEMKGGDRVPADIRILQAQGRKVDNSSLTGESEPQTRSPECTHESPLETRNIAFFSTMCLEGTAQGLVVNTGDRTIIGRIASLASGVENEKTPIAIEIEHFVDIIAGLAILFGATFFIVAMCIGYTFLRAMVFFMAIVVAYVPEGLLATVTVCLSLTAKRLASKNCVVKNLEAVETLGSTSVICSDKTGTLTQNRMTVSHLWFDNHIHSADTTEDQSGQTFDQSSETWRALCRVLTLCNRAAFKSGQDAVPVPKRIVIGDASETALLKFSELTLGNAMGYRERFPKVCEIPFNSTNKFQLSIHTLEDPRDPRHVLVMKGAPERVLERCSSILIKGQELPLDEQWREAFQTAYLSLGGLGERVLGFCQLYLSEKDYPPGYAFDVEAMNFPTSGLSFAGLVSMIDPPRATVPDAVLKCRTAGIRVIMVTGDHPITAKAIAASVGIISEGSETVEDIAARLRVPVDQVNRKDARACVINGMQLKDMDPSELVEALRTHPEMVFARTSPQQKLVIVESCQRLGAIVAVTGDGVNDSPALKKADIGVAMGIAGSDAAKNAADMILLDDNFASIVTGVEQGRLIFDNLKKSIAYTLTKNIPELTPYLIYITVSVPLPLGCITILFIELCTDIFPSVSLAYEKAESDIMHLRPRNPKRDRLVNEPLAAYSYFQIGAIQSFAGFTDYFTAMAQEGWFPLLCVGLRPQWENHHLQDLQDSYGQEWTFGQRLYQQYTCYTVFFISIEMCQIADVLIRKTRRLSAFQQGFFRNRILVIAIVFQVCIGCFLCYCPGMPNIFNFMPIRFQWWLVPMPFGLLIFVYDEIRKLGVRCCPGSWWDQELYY
Chain of Proton Pump (H^+/K^+-ATPase) (P18434 whole entry partner): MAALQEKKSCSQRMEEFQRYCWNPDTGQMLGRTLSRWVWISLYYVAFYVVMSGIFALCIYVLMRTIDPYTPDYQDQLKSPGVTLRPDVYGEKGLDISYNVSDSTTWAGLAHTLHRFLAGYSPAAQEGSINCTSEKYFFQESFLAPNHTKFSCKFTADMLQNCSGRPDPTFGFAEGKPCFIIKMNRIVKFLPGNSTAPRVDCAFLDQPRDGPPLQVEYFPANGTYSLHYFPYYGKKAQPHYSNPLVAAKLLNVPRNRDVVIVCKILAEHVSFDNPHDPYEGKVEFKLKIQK
Assay type: biochemical
For `CCCn1c(C)c(C)c2cc(C(=O)N3CCNCC3)nc(N3CCc4ccccc4C3)c21` [Example 813, [7-(3,4-dihydro-1H-isoquinolin-2-yl)-2,3-dimethyl-1-propyl-1H-pyrrolo[2,3-c]pyridin-5-yl]-(piperazin-1-yl)-methanone hydrochloride], the IC50 was 11 nM. `Cc1c(C)n(Cc2ccccc2)c2c(N3CCc4ccccc4C3)nc(CO)cc12` [Example 850, [1-benzyl-7-(3,4-dihydro-1H-isoquinolin-2-yl)-2,3-dimethyl-1H-pyrrolo[2,3-c]pyridin-5-yl]-methanol hydrochloride] showed an IC50 of 53 nM. In the case of `C#CCn1c(C)c(C)c2cc(C(=O)N3CCCCC3)nc(N3CCc4ccccc4C3)c21` [Example 802, [7-(3,4-dihydro-1H-isoquinolin-2-yl)-2,3-dimethyl-1-(prop-2-ynyl)-1H-pyrrolo[2,3-c]pyridin-5-yl]-(piperidin-1-yl)-methanone hydrochloride], the IC50 is reported as 80 nM. `C=CCn1c(C)c(C)c2ccnc(N3CCc4ccccc4C3)c21` [Example 494, 1-allyl-7-(1,2,3,4-tetrahydroisoquinolin-2-yl)-2,3-dimethyl-1H-pyrrolo[2,3-c]pyridine hydrobromide] showed an IC50 of 4 nM. For `Cc1c(C)n(Cc2ccccc2)c2c(N3CCc4ccccc4C3)nc(C(N)=O)cc12` [Example 745, 1-benzyl-7-(3,4-dihydro-1H-isoquinolin-2-yl)-2,3-dimethyl-1H-pyrrolo[2,3-c]pyridin-5-carboxamide], the IC50 was 112 nM. Compound `Cc1c(C)n(Cc2ccc(OC(F)(F)F)cc2)c2c(N3CCc4ccccc4C3)nccc12` [Example 479, 1-(4-trifluoromethoxybenzyl)-7-(1,2,3,4-tetrahydroisoquinolin-2-yl)-2,3-dimethyl-1H-pyrrolo[2,3-c]pyridine hydrochloride] has an IC50 of 1140 nM. `Cc1c(C)n(Cc2ccccn2)c2c(N3CCc4ccccc4C3)nccc12` [Example 517, 1-(pyridin-2-ylmethyl)-7-(1,2,3,4-tetrahydroisoquinolin-2-yl)-2,3-dimethyl-1H-pyrrolo[2,3-c]pyridine hydrochloride] showed an IC50 of 20 nM. `Cc1c(C)n(Cc2ccccc2)c2c(CNc3ccc(F)cc3)nccc12` [Example 89, N-(1-benzyl-2,3-dimethyl-1H-pyrrolo[2,3-c]pyridin-7-ylmethyl)-4-fluorophenylamine hydrochloride] was tested, and the IC50 was 321 nM. In the case of `C=CCCn1c(C)c(C)c2ccnc(NCc3ccccc3)c21` [Example 181, 7-benzylamino-1-(but-3-enyl)-2,3-dimethyl-1H-pyrrolo[2,3-c]pyridine hydrochloride], the IC50 is reported as 360 nM. In the case of `C#CCn1c(C)c(C)c2ccnc(-c3ccc4ccccc4c3)c21` [Example 408, 2,3-dimethyl-7-(naphthalen-2-yl)-1-(prop-2-ynyl)-1H-pyrrolo[2,3-c]pyridine hydrochloride], the IC50 is reported as 89 nM. Compound `CCCn1c(C)c(C)c2ccnc(NCc3ccccc3Cl)c21` [Example 231, 7-(2-chlorobenzylamino)-2,3-dimethyl-1-propyl-1H-pyrrolo[2,3-c]pyridine hydrochloride] has an IC50 of 138 nM. Compound `Cc1ccccc1CNc1nccc2c(C)c(C)n(Cc3ccc(F)cc3)c12` [Example 219, 1-(4-fluorobenzyl)-2,3-dimethyl-7-(2-methylbenzylamino)-1H-pyrrolo[2,3-c]pyridine hydrochloride] has an IC50 of 1240 nM. In the case of `Cc1nc(Cn2c(C)c(C)c3ccnc(N4CCc5ccc(Cl)cc5C4C)c32)cs1` (stereo not shown) [Example 538, 7-chloro-2-[2,3-dimethyl-1-(2-methylthiazol-4-ylmethyl)-1H-pyrrolo[2,3-c]pyridin-7-yl]-1-methyl-1,2,3,4-tetrahydroisoquinoline hydrochloride], the IC50 is reported as 244 nM. For `C=CCn1c(C)c(C)c2cc(C(=O)O)nc(N3CCc4ccccc4C3)c21` [Example 732, 1-allyl-7-(3,4-dihydro-1H-isoquinolin-2-yl)-2,3-dimethyl-1H-pyrrolo[2,3-c]pyridin-5-carboxylic acid], the IC50 was 22 nM. In the case of `Cc1c(C)n(Cc2ccccc2)c2c(NCc3ccc(Cl)cc3)nccc12` [Example 215, 1-benzyl-7-(4-chlorobenzylamino)-2,3-dimethyl-1H-pyrrolo[2,3-c]pyridine hydrochloride], the IC50 is reported as 420 nM. `Cc1c(C)n(Cc2cccc(F)c2)c2c(N3CCc4ccccc4C3)nc(CN3CCOCC3)cc12` [Example 872, 2-[1-(3-fluorobenzyl)-2,3-dimethyl-5-(morpholin-4-ylmethyl)-1H-pyrrolo[2,3-c]pyridin-7-yl]-1,2,3,4-tetrahydroisoquinoline hydrochloride] gave an IC50 of 43 nM. With `Cc1c(C)n(Cc2ccc(F)cc2)c2c(CCc3ccccc3)nccc12` [Example 455, 1-(4-fluorobenzyl)-2,3-dimethyl-7-phenethyl-1H-pyrrolo[2,3-c]pyridine hydrochloride] the IC50 was 400 nM. `CCn1c(C)c(C)c2cc(C(=O)N3CC=CCC3)nc(N3CCc4ccccc4C3)c21` [Example 809, [7-(3,4-dihydro-1H-isoquinolin-2-yl)-1-ethyl-2,3-dimethyl-1H-pyrrolo[2,3-c]pyridin-5-yl]-(3,6-dihydro-2H-pyridin-1-yl)-methanone hydrochloride] was tested, and the IC50 was 59 nM. `C=CCn1c(C)c(C)c2ccnc(-c3ccc(Cl)cc3)c21` [Example 300, 1-allyl-7-(4-chlorophenyl)-2,3-dimethyl-1H-pyrrolo[2,3-c]pyridine hydrochloride] gave an IC50 of 173 nM. For `C#CCn1c(C)c(C)c2ccnc(-c3ccc(C)cc3)c21` [Example 280, 2,3-dimethyl-1-(prop-2-ynyl)-7-(p-tolyl)-1H-pyrrolo[2,3-c]pyridine hydrochloride], the IC50 was 345 nM. Work on `C=CCn1c(C)c(C)c2ccnc(N3CCc4ccccc4C3)c21` [Example 490, 1-allyl-7-(1,2,3,4-tetrahydroisoquinolin-2-yl)-2,3-dimethyl-1H-pyrrolo[2,3-c]pyridine nitrate] yielded an IC50 of 3 nM. `Cc1c(C)n(CC2CC2)c2c(COc3ccc(F)cc3F)nccc12` [Example 35, 1-cyclopropylmethyl-7-(2,4-difluorophenoxymethyl)-2,3-dimethyl-1H-pyrrolo[2,3-c]pyridine hydrochloride] was tested, and the IC50 was 846 nM. `Cc1c(C)n(Cc2ccc(Cl)s2)c2c(N3CCc4ccccc4C3)nccc12` [Example 514, 1-(5-chlorothiophene-2-ylmethyl)-7-(1,2,3,4-tetrahydroisoquinolin-2-yl)-2,3-dimethyl-1H-pyrrolo[2,3-c]pyridine hydrochloride] gave an IC50 of 200 nM. In the case of `CCn1c(C)c(C)c2ccnc(N3CCc4ccccc4C3C)c21` (stereo not shown) [Example 554, 2-(1-ethyl-2,3-dimethyl-1H-pyrrolo[2,3-c]pyridin-7-yl)-1-methyl-1,2,3,4-tetrahydroisoquinoline hydrochloride], the IC50 is reported as 59 nM. Compound `COC(=O)c1cc2c(C)c(C)n(Cc3ccccc3)c2c(N2CCc3ccccc3C2)n1` [Example 743, 1-benzyl-7-(3,4-dihydro-1H-isoquinolin-2-yl)-2,3-dimethyl-1H-pyrrolo[2,3-c]pyridin-5-carboxylic acid methyl ester] has an IC50 of 231 nM. With `Cc1c(CO)c2ccnc(N3CCc4ccccc4C3)c2n1Cc1cccc(F)c1` [Example 617, [7-(3,4-dihydro-1H-isoquinolin-2-yl)-1-(3-fluorobenzyl)-2-methyl-1H-pyrrolo[2,3-c]pyridin-3-yl]-methanol hydrochloride] the IC50 was 65 nM. In the case of `Cc1c(C)n(Cc2cccc(F)c2)c2c(N3CCc4ccccc4C3)nc(CNC(C)(C)C)cc12` [Example 869, N-[7-(3,4-dihydro-1H-isoquinolin-2-yl)-1-(3-fluorobenzyl)-2,3-dimethyl-1H-pyrrolo[2,3-c]pyridin-5-ylmethyl]-tert-butylamine hydrochloride], the IC50 is reported as 40 nM. `Cc1ccc(OCc2nccc3c(C)c(C)n(Cc4ccccc4)c23)cc1` [Example 15, 1-benzyl-2,3-dimethyl-7-(p-tolyloxymethyl)-1H-pyrrolo[2,3-c]pyridine hydrochloride] showed an IC50 of 140 nM. With `COc1cccc(Cn2c(C)c(C)c3ccnc(-c4ccc(C)cc4)c32)c1` [Example 278, 1-(3-methoxybenzyl)-2,3-dimethyl-7-(p-tolyl)-1H-pyrrolo[2,3-c]pyridine hydrochloride] the IC50 was 390 nM. Compound `Cc1ccc(-c2nccc3c(C)c(C)n(Cc4cccc(F)c4)c23)cc1` [Example 284, 2,3-dimethyl-1-(3-fluorobenzyl)-7-(p-tolyl)-1H-pyrrolo[2,3-c]pyridine hydrochloride] has an IC50 of 267 nM. `Cc1c(C)n(Cc2cccc(F)c2)c2c(N3CCc4ccccc4C3)nc(Cl)cc12` [Example 657, 5-chloro-[1-(3-fluorobenzyl)-7-(1,2,3,4-tetrahydroisoquinolin-2-yl)]-2,3-dimethyl-1H-pyrrolo[2,3-c]pyridine hydrochloride] was tested, and the IC50 was 240 nM. In the case of `Cc1ccc(CNc2nccc3c(C)c(C)n(CC(C)C)c23)cc1` [Example 198, 1-isobutyl-2,3-dimethyl-7-(4-methylbenzylamino)-1H-pyrrolo[2,3-c]pyridine hydrochloride], the IC50 is reported as 64 nM. For `Cc1ccc(Cn2c(C)c(C)c3ccnc(CN(C)c4ccc(F)cc4)c32)cc1` [Example 117, N-[2,3-dimethyl-1-(4-methylbenzyl)-1H-pyrrolo[2,3-c]pyridin-7-ylmethyl]-N-(4-fluorophenyl)-methylamine hydrochloride], the IC50 was 46 nM. `Cc1ccc(CNCc2cc3c(C)c(C)n(Cc4cccc(F)c4)c3c(N3CCc4ccccc4C3)n2)cc1` [Example 867, N-[7-(3,4-dihydro-1H-isoquinolin-2-yl)-1-(3-fluorobenzyl)-2,3-dimethyl-1H-pyrrolo[2,3-c]pyridin-5-ylmethyl]-4-methylbenzylamine hydrochloride] was tested, and the IC50 was 412 nM. With `C=CCn1c(C)c(C)c2ccnc(N3CCc4ccccc4C3)c21` [Example 486, 1-allyl-7-(1,2,3,4-tetrahydroisoquinolin-2-yl)-2,3-dimethyl-1H-pyrrolo[2,3-c]pyridine tartrate] the IC50 was 8 nM. In the case of `COc1cccc(Cn2c(C)c(C)c3ccnc(COc4ccc(C)cc4)c32)c1` [Example 16, 1-(3-methoxybenzyl)-2,3-dimethyl-7-(p-tolyloxymethyl)-1H-pyrrolo[2,3-c]pyridine hydrochloride], the IC50 is reported as 180 nM. `C=CCn1c(C)c(C)c2ccnc(N3CCc4ccccc4C3)c21` [Example 492, 1-allyl-7-(1,2,3,4-tetrahydroisoquinolin-2-yl)-2,3-dimethyl-1H-pyrrolo[2,3-c]pyridine phosphate] was tested, and the IC50 was 7 nM.
